Experimental data reported in patent US8906904B2, “Alkoxy pyrazoles as soluble guanylate cyclase activators” (Boehringer Ingelheim International GmbH, priority 2012, dated 2014).

How the values were obtained:
[1] = biological target: T1, human soluble guanylate cyclase alpha 1 and beta 1 subunits (sGC) (Homo sapiens, UniProt Q02108+Q02153); assay: sGC cellular activator assay (cGMP, HTRF); type: cell-based; conditions: CHO cells stably expressing human sGC alpha 1/beta 1, preincubated with 40 microM ODQ; cGMP readout; assay run with and without 50% human serum, Table 2 does not say which
T1 construct: expressed in transfected cells; host or cells: Chinese hamster ovary (CHO) cells, stably transfected
T1 sequence (Q02108 1-690): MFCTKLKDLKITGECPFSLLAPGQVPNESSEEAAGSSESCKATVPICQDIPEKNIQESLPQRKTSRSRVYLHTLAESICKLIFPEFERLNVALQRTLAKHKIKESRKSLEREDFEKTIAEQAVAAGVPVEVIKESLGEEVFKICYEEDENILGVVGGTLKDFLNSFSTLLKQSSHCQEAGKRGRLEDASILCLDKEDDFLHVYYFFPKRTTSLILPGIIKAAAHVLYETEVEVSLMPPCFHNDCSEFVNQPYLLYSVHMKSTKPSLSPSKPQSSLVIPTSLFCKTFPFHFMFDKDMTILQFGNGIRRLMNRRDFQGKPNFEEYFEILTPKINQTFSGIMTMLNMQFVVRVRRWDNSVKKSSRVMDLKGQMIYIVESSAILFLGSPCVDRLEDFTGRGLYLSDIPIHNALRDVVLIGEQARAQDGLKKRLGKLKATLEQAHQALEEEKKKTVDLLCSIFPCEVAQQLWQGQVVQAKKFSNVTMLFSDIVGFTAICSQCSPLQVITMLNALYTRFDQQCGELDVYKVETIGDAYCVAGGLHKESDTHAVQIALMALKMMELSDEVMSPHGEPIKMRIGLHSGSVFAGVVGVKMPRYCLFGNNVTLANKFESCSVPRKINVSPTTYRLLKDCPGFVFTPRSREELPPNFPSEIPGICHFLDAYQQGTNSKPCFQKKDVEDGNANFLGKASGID
T1 sequence (Q02153 1-619): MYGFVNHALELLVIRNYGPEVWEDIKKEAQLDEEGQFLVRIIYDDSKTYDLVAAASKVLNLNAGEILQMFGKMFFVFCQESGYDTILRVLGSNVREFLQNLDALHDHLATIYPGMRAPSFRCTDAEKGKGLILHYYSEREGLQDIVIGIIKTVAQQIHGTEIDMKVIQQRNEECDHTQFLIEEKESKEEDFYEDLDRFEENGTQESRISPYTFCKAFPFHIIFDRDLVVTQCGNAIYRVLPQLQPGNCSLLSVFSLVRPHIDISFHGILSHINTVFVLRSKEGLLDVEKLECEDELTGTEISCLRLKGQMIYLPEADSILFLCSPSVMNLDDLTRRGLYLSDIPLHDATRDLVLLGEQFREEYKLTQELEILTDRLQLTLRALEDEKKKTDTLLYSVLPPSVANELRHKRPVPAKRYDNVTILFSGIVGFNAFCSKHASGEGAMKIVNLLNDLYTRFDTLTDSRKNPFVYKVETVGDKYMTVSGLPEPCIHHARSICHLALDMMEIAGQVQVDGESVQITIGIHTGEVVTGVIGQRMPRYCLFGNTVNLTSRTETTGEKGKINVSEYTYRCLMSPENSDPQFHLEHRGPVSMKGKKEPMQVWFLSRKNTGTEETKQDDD
Summary of the method: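 First, CHO-sGC (human α1β1) cells get 1 h ODQ at 40 microM with IBMX and 0.1% BSA. Finally, cGMP is quantified by HTRF and EC50 computed.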

[2] = human liver microsome (HLM) metabolic stability assay; type: in vitro ADME; conditions: human liver microsomes; % hepatic blood flow calculated from t1/2
Summary of the method: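 Compounds at 1 uM incubated with human liver microsomes plus NADPH at 37° C., sampled at 0, 5, 15, 30 and 60 min into cold acetonitrile and quantified by LC/MS/MS. t½ from the slope of ln % remaining vs time; CLint, CLh and % Qh derived from it (n=1).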

Structure (SMILES)	EC50 [1] [nM]	HLM (% Qh) [2] [% Qh]
COc1c(C(=O)O)cnn1-c1cccc(-c2cccc(C)c2OCc2ccc3c(c2)CCN(CC(C)(C)O)C3)n1 [Compound 33, 1-(6-{2-[2-(2-hydroxy-2-methyl-propyl)-1,2,3,4-tetrahydro-isoquinolin-6-ylmethoxy]-3-methyl-phenyl}-pyridin-2-yl)-5-methoxy-1H-pyrazole-4-carboxylic acid]	97	<24
COc1c(C(=O)O)cnn1-c1cccc(-c2cccc(C)c2OCc2ccc3c(c2)CCN(C2CCOCC2)C3)n1 [Compound 3]	29	<24
COc1c(C(=O)O)cnn1-c1cccc(-c2cccc(C)c2OCc2ccc3c(c2)CCN(C2CC4CCC(C2)O4)C3)n1 (centres unmarked) [Compound 87]	55	<24
CCOc1c(C(=O)O)cnn1-c1cccc(-c2cccc(C)c2OCc2ccc3c(c2)CCN(CC2CC(F)(F)C2)C3)n1 [Compound 96]	24	30
Cc1cccc(-c2cccc(-n3ncc(C(=O)O)c3OC(C)C)n2)c1OCc1ccc2c(c1)CCN(C1COC1)C2 [Compound 39]	17	<24
COc1c(C(=O)O)cnn1-c1cccc(-c2cccc(C)c2OCc2ccc3c(c2)CCN(C2CC(C)OC(C)C2)C3)n1 (centres unmarked) [Compound 62]	24	<24
COc1c(C(=O)O)cnn1-c1cccc(-c2cccc(C)c2OCc2ccc3c(c2)CCN(C2CC(C)(C)OC(C)(C)C2)C3)n1 [Compound 73]	250	36
COc1c(C(=O)O)cnn1-c1cccc(-c2cc(F)cc(F)c2OCc2ccc3c(c2)CCN(C2CCOCC2)C3)n1 [Compound 53]	110	<24
Cc1cccc(-c2cccc(-n3ncc(C(=O)O)c3OC(C)C)n2)c1OCc1ccc2c(c1)CCN(C1CCCOC1)C2 (centres unmarked) [Compound 42]	24	<24
Cc1cccc(-c2cccc(-n3ncc(C(=O)O)c3OC(C)C)n2)c1OCc1ccc2c(c1C)CCN(CC1(C)COC1)C2 [Compound 46]	38	<24
CCOc1c(C(=O)O)cnn1-c1cccc(-c2cccc(C)c2OCc2ccc3c(c2)CCN(CC2CCOCC2)C3)n1 [Compound 69]	61	<24
CCOc1c(C(=O)O)cnn1-c1cccc(-c2cccc(C)c2OCc2ccc3c(c2)CCN(C(C)C)C3)n1 [Compound 32]	170	<24
CCOc1c(C(=O)O)cnn1-c1cccc(-c2cccc(Cl)c2OCc2ccc3c(c2)CCN(C(C)CO)C3)n1 (centres unmarked) [Compound 56]	820	<24
COCC(C)N1CCc2cc(COc3c(C)cccc3-c3cccc(-n4ncc(C(=O)O)c4OC(C)C)n3)ccc2C1 (centres unmarked) [Compound 38]	66	<24

Next, values leading:

EC50 [1] [nM]	HLM (% Qh) [2] [% Qh]	Structure (SMILES)
990	40	CCOc1c(C(=O)O)cnn1-c1cccc(-c2cccc(Cl)c2OCc2ccc3c(c2)CCNC3)n1 [Compound 50]
11	<24	Cc1cccc(-c2cccc(-n3ncc(C(=O)O)c3OC(C)C)n2)c1OCc1ccc2c(c1)CCN(CC1CC(F)(F)C1)C2 [Compound 4, 1-(6-{2-[2-(3,3-difluoro-cyclobutylmethyl)-1,2,3,4-tetrahydro-isoquinolin-6-ylmethoxy]-3-methyl-phenyl}-pyridin-2-yl)-5-isopropoxy-1H-pyrazole-4-carboxylic acid]
410	<24	COc1c(C(=O)O)cnn1-c1cccc(-c2cccc(C)c2OCc2ccc3c(c2)CCN(C2CCOCC2OC)C3)n1 (centres unmarked) [Compound 81]
71	<24	CCOc1c(C(=O)O)cnn1-c1cccc(-c2cccc(C)c2OCc2ccc3c(c2)CCN(C2CCOCC2C)C3)n1 (centres unmarked) [Compound 64]
9	<24	COc1c(C(=O)O)cnn1-c1cccc(-c2cccc(C(F)(F)F)c2OCc2ccc3c(c2C)CCN(C2CCOCC2)C3)n1 [Compound 84]
31	<24	CCOc1c(C(=O)O)cnn1-c1cccc(-c2cccc(C)c2OCc2ccc3c(c2)CCN(C2CCOCC2)C3)n1 [Compound 77]
20	<24	COc1c(C(=O)O)cnn1-c1cccc(-c2cccc(C)c2OCc2ccc3c(c2)CCN(CC2COCCO2)C3)n1 (centres unmarked) [Compound 92]
23	31	COc1c(C(=O)O)cnn1-c1cccc(-c2cccc(C)c2OCc2ccc3c(c2)CCN(C2C4CCOC4C2(C)C)C3)n1 (centres unmarked) [Compound 75]
110	<24	CCOc1c(C(=O)O)cnn1-c1cccc(-c2cccc(Cl)c2OCc2ccc3c(c2)CCN(C2CCOC2)C3)n1 (centres unmarked) [Compound 55]
8	<24	COc1c(C(=O)O)cnn1-c1cccc(-c2cccc(C)c2OCc2ccc3c(c2)CN(CC2CC(F)(F)C2)C3)n1 [Compound 82]
29	<24	CCOc1c(C(=O)O)cnn1-c1cccc(-c2cccc(C)c2OCc2ccc3c(c2)CCN(C2CCOC2)C3)n1 (centres unmarked) [Compound 35]
22	<24	COc1c(C(=O)O)cnn1-c1cccc(-c2cccc(C)c2OCc2ccc3c(c2)CN(C2COC2)C3)n1 [Compound 85]
170	<24	COc1c(C(=O)O)cnn1-c1cccc(-c2cc(F)cc(F)c2OCc2ccc3c(c2)CCN(C2COC2)C3)n1 [Compound 52]
27	<24	CCOc1c(C(=O)O)cnn1-c1cccc(-c2cccc(C)c2OCc2ccc3c(c2)CCN(C2CCCOC2)C3)n1 (centres unmarked) [Compound 36]
87	<24	CCOc1c(C(=O)O)cnn1-c1cccc(-c2cccc(C)c2OCc2ccc3c(c2)CCN(C2COC2)C3)n1 [Compound 6]
44	<24	COCC(C)N1CCc2c(ccc(COc3c(C)cccc3-c3cccc(-n4ncc(C(=O)O)c4OC(C)C)n3)c2C)C1 (centres unmarked) [Compound 44]
19	<24	COc1c(C(=O)O)cnn1-c1cccc(-c2cccc(C)c2OCc2ccc3c(c2C)CCN(C2CCOC2)C3)n1 (centres unmarked) [Compound 31]
